In brackets after ≈: the same amount, converted by molar mass.
test system: P388; assay: Cytotoxicity against mouse P388 cells; format: functional; details: read-out: ED50 (the source's name)

SMILES	EC50 [µg/mL]
COCNC(=O)c1cc(Br)c(Br)[nH]1	21.5 (≈ 68.9 µM)
COC(=O)CC1CNC(=O)c2cc(Br)c(Br)n21 (racemic)	30 (≈ 82 µM)
O=C1NCC(O)n2c1cc(Br)c2Br (racemic) [LONGAMIDE]	> 100

— ChEMBL document CHEMBL1151317, “A new bromopyrrole alkaloid and the optical resolution of the racemate from the marine sponge homaxinella sp” (1998)
